In US5830920A, “Sulfuric acid esters of sugar alcohols” (Hoffmann-La Roche Inc., priority 1995, dated 1998):

Experiments:
thrombin = biological target: T1, thrombin (Bos taurus, UniProt P00735); test: Inhibition of thrombin in the chromogenic substrate assay; format: biochemical; conditions: plasma, antithrombin III, substrate S-2238, 37° C., pH 8.4
T1 construct: purchased Roche Basle
Procedure: (§1) The blood coagulation-inhibiting activity was determined as follows:
(§2) The buffer solution used consisted of 50 mM Tris buffer, 180 mM NaCl, 7.5 mM EDTA Na2, 1% PEG 6000 and 0.02% Tween 80, pH 8.4. The assay solution consisted of 50 μl of buffer, 30 μl of antithombin III (1 U/ml, Kabi Diagnostica) and 20 μl of plasma which contained various concentrations of test compounds. 30 μl of sample solution and 20 μl of water with 180 μl of thrombin (1 U/ml, thrombin reagent, Roche Basle) were added to the test cuvette in the automatic analyzer.

[1] = system: neointima in rat carotids; test: In vivo assay for antiproliferative activity in damaged rat carotids (neointima after balloonisation); design: species or system rat (male Wistar Kyoto); conditions: 0.3 mg/kg/h i.v.
Procedure: In vivo assay for determining the antiproliferative activity of the compounds in accordance with the invention in damaged rat carotids.
The left carotids of male Wistar Kyoto rats (300-400 g) were, after narcosis, damaged with a 2F embolectomy catheter by pulling the catheter in the pumped-up state through the vessel three times. After wound management, the animals were kept in pairs with standard feed and water ad libidum.
The compounds were administered in concentrations of 0.3-1 mg/kg/h i.v. For this purpose, an osmotic minipump was implanted under the dorsal skin of the animals during the narcosis and was connected with the jugular vein. Thus, the compounds could be administered constantly during the entire test period of 14 days.
After 14 days, proliferative tissue (neointima) had formed, the size of which could be determined morphometrically on histological cross-sections.In order to do this, the rats were sacrificed and perfusion-fixed with glutaraldehyde.

rat smooth muscle cells = test: Antiproliferative activity in cell cultures (rat smooth muscle cells), relative to heparin; format: cell-based; conditions: 100 μg/ml, 48 h, heparin at same concentration = reference
Procedure: The antiproliferative activity of a substance is expressed as the ri value which is a comparative value to the corresponding activity of heparin and which was determined in cell cultures as follows: rat smooth muscle cells were applied to cell culture plates in a density of 8×10^3 cells/well, medium: DMEM (Dulbecco Modified Eagle Medium) with 10% FCS (fetal calf serum); cultivation at 37° C. and 5% CO2. After 4 hours, the number of adhered cells was determined and the substances to be tested (100 μg/ml, dissolved in H2 O) were added. […] Subsequently,the cells were incubated for 48 h. and thereafter the cell count was determined once more.
The inhibition i of the cell growth, that is, the reduction in the growth rate of the cells in per cent compared to the control, was calculated from these values. [formula] with the growth rate μ being calculated as [formula] in which Z is the number of cells and d is the time in days.
Finally, ri --the relative inhibitory activity--which expresses the activity of a substance (at 100 μg/ml) in comparison to the activity of heparin in the same concentration in the same experiment, was calculated [formula] Blood coagulation inhibition

factor Xa = factor Xa (Bos taurus, UniProt P00743); test: Inhibition of factor Xa in the chromogenic substrate assay; format: biochemical; conditions: plasma, antithrombin III, substrate S-2222, 37° C., pH 8.4
factor Xa, sequence (P00743 234-492 limits assumed): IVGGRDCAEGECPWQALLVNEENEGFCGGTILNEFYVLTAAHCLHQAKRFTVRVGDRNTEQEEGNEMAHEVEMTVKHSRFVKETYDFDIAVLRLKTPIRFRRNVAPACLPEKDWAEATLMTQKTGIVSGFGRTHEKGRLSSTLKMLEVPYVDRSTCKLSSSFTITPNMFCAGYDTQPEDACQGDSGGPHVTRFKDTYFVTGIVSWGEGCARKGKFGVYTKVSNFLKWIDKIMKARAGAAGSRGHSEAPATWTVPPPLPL
factor Xa, sequence (P00743 41-180 limits assumed): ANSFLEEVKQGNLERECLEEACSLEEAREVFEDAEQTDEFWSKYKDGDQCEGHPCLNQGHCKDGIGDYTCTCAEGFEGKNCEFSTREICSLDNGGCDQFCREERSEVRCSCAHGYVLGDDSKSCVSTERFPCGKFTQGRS
Procedure: [Worded in the source for another target; used here, by the source, with some conditions changed.] as §1, §2

Substance | Anticoagulant Activity IC50 Thrombin (thrombin) [µg/mL] | Anticoagulant Activity IC50 Factor Xa (factor Xa) [µg/mL] | effect on neointima compared to concentrated heparin ([1]; 14 days, comparison with heparin) | cross sectional area of the neointima in rat carotids 14 days after balloonisation ([1]; osmotic minipump) | Antiproliferative Activity ri (relative inhibitory activity compared to heparin) (rat smooth muscle cells)
1,6-Bis-O-[4-[2-(2,3,4,5,6-penta-O-sulfo-D-glucit-1-ylcarbamoyl)-ethyl]-phenyl]-2,3,4,5-tetra-O-sulfo-galactitol tetradecasodium salt [Example 6] | > 1000 | > 1000 | comparable effect to that of concentrated heparin | significantly reduced (p<0.01, t-test) | 0.7
1,6-bis-O-[3-(2,3,4,5,6-penta-O-sulfo-D-glucit-1-ylcarbamoyl)-naphthalen-2-yl]-2,3,4,5-tetra-O-sulfo-galactitol tetradecasodium salt [Example 14] | > 1000 | > 1000 | – | – | 1.5
1,6-bis-O-[3-(2,3,4,5-tetra-O-sulfo-D-arabinit-1-yloxy)-naphthalen-2-yl]-2,3,4,5-tetra-O-sulfo-galactitol dodecasodium salt [Example 40] | > 1000 | > 1000 | – | – | 1.4
1,6-bis-O-[3-[benzyl 2,6-didesoxy-6-(2,3,4,5,6-penta-O-sulfo-D-gluconoylamino)-3,4-di-O-sulfo-a-D-glucopyranosid-2-ylcarbamoyl]-naphthalen-1-yl]-2,3,4,5-tetra-O-sulfo-galactitol octadecasodium salt [Example 56] | > 1000 | > 1000 | – | – | 1.7
1,6-bis-O-[3-biphenyl-4-ylmethoxy-5-(2,3,4,5,6-penta-O-sulfo-D-glucit-1-ylcarbamoyl)-phenyl]-2,3,4,5-tetra-O-sulfo-galactitol tetradecasodium salt [Example 17] | > 1000 | > 1000 | – | – | 1.5
1,6-bis-O-[4-[2-[4-(2,3,4,5,6-penta-O-sulfo-D-glucit-1-ylcarbamoyl)-phenyl]-ethyl]-phenyl]-2,3,4,5-tetra-O-sulfo-galactitol tetradecasodium salt [Example 11] | > 1000 | > 1000 | – | – | 2.2
1,6-bis-O-[4-[2-[benzyl-2,6-didesoxy-6-(2,3,4,5,6-penta-O-sulfo-D-gluconoylamino)-3,4-di-O-sulfo-a-D-glucopyranosid-2-ylcarbamoyl]-ethyl]-phenyl]-2,3,4,5-tetra-O-sulfo-galactitol octadecasodium salt [Example 58] | > 1000 | > 1000 | – | – | 1.8
1,6-bis-O-[4-[4-O-[4-[(E)-2-(2,3,4,5,6-penta-O-sulfo-D-glucit-1-ylcarbamoyl)-vinyl]-phenyl]-2,3-di-O-sulfo-D-threit-1-yloxy]-phenyl]-2,3,4,5-tetra-O- sulfo-galactitol octadecasodium salt [Example 48] | > 1000 | > 1000 | – | – | 2.7
1,6-didesoxy-2,3,4,5-tetra-O-sulfo-1,6-bis-[3-(2,3,4,5-tetra-O-sulfo-D-arabinit-1-yloxy)-naphthalen-2-ylcarbonylamino]-galactitol dodecasodium salt [Example 45] | > 1000 | > 1000 | – | – | 1.4
2,3,4,5-tetra-O-sulfo-1,6-bis-O-[4-[4-(2,3,4,5-tetra-O-sulfo-D-arabinit-1- yloxy)-benzyl]-phenyl]-D-mannitol dodecasodium salt [Example 43] | > 1000 | > 1000 | – | – | 1.3

Now from value to substance, other results behind:

Anticoagulant Activity IC50 Thrombin (thrombin) [µg/mL] | Anticoagulant Activity IC50 Factor Xa (factor Xa) [µg/mL] | Substance | effect on neointima compared to concentrated heparin ([1]; 14 days, comparison with heparin) | cross sectional area of the neointima in rat carotids 14 days after balloonisation ([1]; osmotic minipump) | Antiproliferative Activity ri (relative inhibitory activity compared to heparin) (rat smooth muscle cells)
> 1000 | > 1000 | 1,6-Bis-O-[6-(2,3,4,5,6-penta-O-sulfo-D-glucit-1-ylcarbamoyl)-naphthalen-2- yl]-2,3,4,5-tetra-O-sulfo-galactitol tetradecasodium salt [Example 16] | – | – | 2.1
> 1000 | > 1000 | 1,6-bis-O-[4-[4-O-[4-[(E)-2-[methyl-(2,3,4,5,6-penta-O-sulfo-D-glucit-1-yl)-carbamoyl]-vinyl]-phenyl]-2,3-di-O-sulfo-D-threit-1-yloxy]-phenyl]-2,3,4,5-tetra-O-sulfo-galactitol octadecasodium salt [Example 52] | – | – | 0.8
> 1000 | > 1000 | 1,6-bis-O-[4-[(E)-2-[benzyl 2,6-didesoxy-2-[4-(2,3,4,5,6-penta-O-sulfo-D-glucit-1-ylamino)-3-nitro-benzoyl-amino]-3,4-di-O-sulfo-a-D-glucopyranosid-6-ylcarbamoyl]-vinyl]-phenyl]-2,3,4,5-tetra-O-sulfo-galactitol octadecasodium salt [Example 61] | – | – | 2.4
> 1000 | > 1000 | 1,6-bis-O-[6-[(S)-2,3-bis-sulfooxy-propoxy]-3-(2,3,4,5,6-penta-O-sulfo-D-glucit 1-ylcarbamoyl)-naphthalen-2-yl]-2,3,4,5-tetra-O-sulfo-galactitol octadecasodium salt [Example 22] | – | – | 2.1
> 1000 | > 1000 | 1,6-bis-O-[6-[benzyl 2,6-didesoxy-2-[3-nitro-4-(2,3,4,5,6-penta-O-sulfo-D-glucit-1-ylamino)-benzoylamino]-3,4-di-O-sulfo-a-D-glucopyranosid-6-ylcarbamoyl]-naphthalen-2-yl]-2,3,4,5-tetra-O-sulfo-galactitol octadecasodium salt [Example 59] | – | – | 1.8
1.9 | 2.7 | Heparin [reference compound] | – | – | 1.0
